Test systems include SNB-75; OVCAR-8; OVCAR-5; CCRF-CEM; OVCAR-4; UO-31; KM12; NCI-H226; HL-60; SW-620; SK-MEL-2; NCI-H460; CAKI-1; NCI-H522; NCI-H23; SK-MEL-5; HOP-62; Malme-3M; DU-145; MDA-MB-435.
Common to all, as to test: NCI tumour cell line growth inhibition, 48 h

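Step 1: Grow cells in 96-well plates. Step 2: Expose to compound for 48 hours at 5 concentrations. Step 3: Interpolate endpoints linearly; if unreached, use highest concentration. Here, GI50 denotes the concentration required for 50% inhibition of growth.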 Activity calls are given as the source filed them. Cut-off read from the data, not from the text of the source: active = GI50 up to about 1.1 µM and inactive = higher.

For the molecule `[O-][S+]1c2ccccc2N=C(c2ccc3ccccc3c2)CC1c1ccccc1` (stereo not drawn), the GI50 in the assay with SNB-75 was 17.1 µM (inactive); in the assay with OVCAR-8, 16.4 µM (inactive); with OVCAR-5, 21.5 µM (inactive); with CCRF-CEM it was 31.8 µM (inactive); in the assay with OVCAR-4, 20.2 µM (inactive); with UO-31, 18.4 µM (inactive). Besides, the GI50 in the assay with KM12 was 13.9 µM (inactive); with NCI-H226, 23.3 µM (inactive); with HL-60, 25.9 µM (inactive); in the assay with SW-620 it was 15.3 µM (inactive); with SK-MEL-2, 30.8 µM (inactive); with NCI-H460 it was 19.7 µM (inactive). For the same molecule, the GI50 with CAKI-1 was 25.1 µM (inactive); with NCI-H522 it was 18.2 µM (inactive); in the assay on NCI-H23 it was 17.9 µM (inactive); with SK-MEL-5, 27.7 µM (inactive); with HOP-62, 29.3 µM (inactive).

Consider `COC(=O)C(NC(=O)c1ccccc1)C(c1ccc(Cl)cc1)P(=O)(OC)OC` (stereo not drawn), for which the GI50 in the assay on SNB-75, in the assay on OVCAR-8, in the assay with OVCAR-5, in the assay on CCRF-CEM, with OVCAR-4 and with UO-31 was > 100 µM (inactive) throughout. Moreover, the GI50 with KM12, with NCI-H226, in the assay on HL-60, in the assay on SW-620, in the assay with SK-MEL-2 and in the assay on NCI-H460 was > 100 µM (inactive) in each case. For the same molecule, the GI50 in the assay with CAKI-1 is > 100 µM (inactive); with NCI-H522, > 100 µM (inactive); in the assay on NCI-H23 it was 91.4 µM (inactive); with SK-MEL-5 it was > 100 µM (inactive); in the assay with HOP-62, > 100 µM (inactive).

For the molecule `Cc1ccc2nc3c(C(=O)NCCN(C)C)cccc3cc2c1`, the GI50 with SNB-75 was 2.99 µM (inactive); in the assay with Malme-3M it was 1.77 µM (inactive); in the assay on OVCAR-8 it was 1.5 µM (inactive); with OVCAR-5, 2.1 µM (inactive); in the assay with CCRF-CEM it was 1.55 µM (inactive); with OVCAR-4 it was 3.03 µM (inactive). Further, the GI50 in the assay on UO-31 is 1.4 µM (inactive); in the assay on KM12, 2.9 µM (inactive); with NCI-H226, 1.45 µM (inactive); in the assay on HL-60, 1.23 µM (inactive); with SW-620, 1.39 µM (inactive); with SK-MEL-2, 2.36 µM (inactive). For the same molecule, the GI50 with NCI-H460 is 0.438 µM (active); in the assay with NCI-H23, 1.84 µM (inactive); in the assay with SK-MEL-5, 1.76 µM (inactive); with HOP-62 it was 2.85 µM (inactive).

In the case of `Cc1cc(=O)oc2cc(OCC(O)COC(C)C)ccc12` (stereo not drawn), the GI50 with SNB-75 was > 100 µM (inactive); in the assay with Malme-3M, > 100 µM (inactive); in the assay on OVCAR-8, > 100 µM (inactive); in the assay with OVCAR-5 it was > 100 µM (inactive); in the assay with CCRF-CEM it was > 100 µM (inactive); in the assay with OVCAR-4, 59.2 µM (inactive). For the same molecule, the GI50 in the assay with UO-31 is > 100 µM (inactive); in the assay on KM12, > 100 µM (inactive); in the assay on DU-145, > 100 µM (inactive); with HL-60 it was > 100 µM (inactive); in the assay on SW-620 it was 99.1 µM (inactive); in the assay on NCI-H460 it was > 100 µM (inactive). The GI50 in the assay on CAKI-1, with NCI-H522, with NCI-H23, in the assay on SK-MEL-5 and in the assay on HOP-62 was > 100 µM (inactive) in each case.

Regarding `CN1C2CC(=O)CC1[C@H](O)[C@@H]2O`, the GI50 in the assay on Malme-3M, with OVCAR-8, with CCRF-CEM, in the assay with UO-31, in the assay on KM12 and in the assay on DU-145 was > 100 µM (inactive) throughout. Further, the GI50 with MDA-MB-435, in the assay on NCI-H226, in the assay on HL-60, in the assay on SW-620, in the assay with SK-MEL-2 and in the assay on NCI-H460 was > 100 µM (inactive) throughout. For the same molecule, the GI50 with NCI-H23 and with HOP-62 was > 100 µM (inactive) throughout.

For the molecule `CCOc1ccc(O)cc1[P+](c1ccccc1)(c1ccccc1)c1ccccc1`, the GI50 with SNB-75 was 4.5 µM (inactive); in the assay with Malme-3M, 3.65 µM (inactive); in the assay with OVCAR-8, 3.42 µM (inactive); with OVCAR-5, 2.66 µM (inactive); in the assay on CCRF-CEM, 1.56 µM (inactive); with OVCAR-4, 6.22 µM (inactive). Further, the GI50 with UO-31 was 17.4 µM (inactive); in the assay with KM12, 1.64 µM (inactive); in the assay on NCI-H226, 1.64 µM (inactive); with HL-60 it was 0.501 µM (active); in the assay on NCI-H460 it was 3.24 µM (inactive); in the assay with CAKI-1, 8.24 µM (inactive). Also, the GI50 was 1.14 µM (inactive) in the assay on NCI-H522, 1.67 µM (inactive) in the assay with NCI-H23, 1.66 µM (inactive) in the assay on SK-MEL-5 and 8.41 µM (inactive) in the assay on HOP-62.

Turning to `CCOC(=O)C(=NN(C)c1ncccc1N)C(=O)OCC`, the GI50 in the assay on SNB-75 is > 100 µM (inactive); in the assay with Malme-3M, 29.1 µM (inactive); with OVCAR-8, 38.3 µM (inactive); in the assay on CCRF-CEM, 37.5 µM (inactive); with OVCAR-4, 97.3 µM (inactive); in the assay on UO-31, 38.8 µM (inactive). Further, the GI50 in the assay on KM12 was > 100 µM (inactive); in the assay with DU-145, > 100 µM (inactive); in the assay on MDA-MB-435, 19.3 µM (inactive); in the assay on NCI-H226, 21.6 µM (inactive); with HL-60, 15.1 µM (inactive); in the assay on SW-620, 27.6 µM (inactive). Also, the GI50 was 29.6 µM (inactive) in the assay on SK-MEL-2; > 100 µM (inactive) in the assay on NCI-H460; 33.3 µM (inactive) in the assay on CAKI-1; 45.5 µM (inactive) in the assay with NCI-H23; 68.4 µM (inactive) in the assay with SK-MEL-5; > 100 µM (inactive) in the assay on HOP-62.

`Cc1ccc(C)c(NC(=O)/C(=N\N)C(c2cnc3ccc([N+](=O)[O-])cc3n2)[N+](=O)[O-])c1` (stereo not drawn): the GI50 with SNB-75 was > 100 µM (inactive); in the assay on Malme-3M, 66.8 µM (inactive); with OVCAR-8 it was 37 µM (inactive); with OVCAR-5, > 100 µM (inactive); in the assay with CCRF-CEM, 4.99 µM (inactive); in the assay on OVCAR-4, 18.4 µM (inactive). In addition, the GI50 in the assay with UO-31 was 23.6 µM (inactive); with KM12, 47.9 µM (inactive); in the assay on MDA-MB-435 it was 62.5 µM (inactive); with NCI-H226, > 100 µM (inactive); with HL-60, 52 µM (inactive); in the assay on SW-620, > 100 µM (inactive). Besides, the GI50 was 71.6 µM (inactive) in the assay with SK-MEL-2; 70.3 µM (inactive) in the assay with NCI-H460; 39.4 µM (inactive) with CAKI-1; 19.7 µM (inactive) in the assay on NCI-H522; 70.8 µM (inactive) in the assay on NCI-H23; 41.6 µM (inactive) with SK-MEL-5. Moreover, in the assay with HOP-62, the GI50 was 40 µM (inactive).

Take `Cc1nc2c(cc1C(=O)N/N=C/c1ccc([N+](=O)[O-])cc1)c(=O)n(C)c(=O)n2C`: the GI50 in the assay on SNB-75 is > 100 µM (inactive); in the assay with Malme-3M it was > 100 µM (inactive); in the assay on OVCAR-8 it was 32.4 µM (inactive); in the assay on OVCAR-5, > 100 µM (inactive); with CCRF-CEM, > 100 µM (inactive); in the assay with OVCAR-4, > 100 µM (inactive). For the same molecule, the GI50 was > 100 µM (inactive) in the assay on UO-31; > 100 µM (inactive) in the assay on KM12; 94.6 µM (inactive) with DU-145; > 100 µM (inactive) in the assay with MDA-MB-435; 80.2 µM (inactive) with NCI-H226; > 100 µM (inactive) in the assay on HL-60. Further, the GI50 with SW-620 is > 100 µM (inactive); in the assay on SK-MEL-2 it was 31.8 µM (inactive); in the assay with NCI-H460, > 100 µM (inactive); in the assay with CAKI-1 it was 51.8 µM (inactive); in the assay with NCI-H23, 41.8 µM (inactive); in the assay with SK-MEL-5, > 100 µM (inactive). The GI50 in the assay on HOP-62 was 16.5 µM (inactive).

Take `COc1ccc2c3c1O[C@H]1C[C@@H](O)C=C[C@@]31CCN(C)C2` [GALANTAMINE]: the GI50 in the assay on SNB-75 is > 150 µM (inactive); with Malme-3M, > 150 µM (inactive); with OVCAR-8, 23.8 µM (inactive); in the assay with OVCAR-5 it was > 150 µM (inactive); in the assay with CCRF-CEM, > 150 µM (inactive); in the assay with OVCAR-4 it was > 150 µM (inactive). Besides, the GI50 with UO-31 was > 150 µM (inactive); in the assay on KM12, > 150 µM (inactive); in the assay on NCI-H226, > 150 µM (inactive); in the assay with HL-60, 141 µM (inactive); in the assay with SW-620, > 150 µM (inactive); in the assay with SK-MEL-2, > 150 µM (inactive). The GI50 is > 150 µM (inactive) with NCI-H460; 114 µM (inactive) with CAKI-1; > 150 µM (inactive) in the assay with NCI-H522; > 150 µM (inactive) with NCI-H23; > 150 µM (inactive) in the assay with SK-MEL-5; > 150 µM (inactive) in the assay with HOP-62.

As to `O=c1cc[nH]c(=O)[nH]1` [URACIL], the GI50 in the assay with SNB-75 was 350 µM (inactive); with OVCAR-8 it was 527 µM (inactive); with OVCAR-5, > 746 µM (inactive); in the assay with CCRF-CEM it was 318 µM (inactive); with OVCAR-4 it was > 656 µM (inactive); in the assay with UO-31, 1000 µM (inactive). Also, the GI50 is 237 µM (inactive) in the assay on KM12; 329 µM (inactive) with NCI-H226; 581 µM (inactive) in the assay with HL-60; 361 µM (inactive) in the assay with SW-620; 393 µM (inactive) with SK-MEL-2; 305 µM (inactive) in the assay on NCI-H460. Besides, the GI50 in the assay with CAKI-1 is 307 µM (inactive); in the assay on NCI-H522, 371 µM (inactive); with NCI-H23, 147 µM (inactive); in the assay with SK-MEL-5, 177 µM (inactive); in the assay on HOP-62, 340 µM (inactive).
